{"source": "patent US20220249538A1", "about": "“TREATMENT AGENT FOR SEX HORMONE-INSENSITIVE GREB1-POSITIVE TUMORS” (OSAKA UNIVERSITY, priority 2019, published 2022)", "assay_type_in_all_cases": "cell-based, human", "key": {"Smad2/3": {"tested_on": "Smad2/3", "assay": "Smad2/3 immunostaining and immunoprecipitation in HepG2 cells", "protocol": "HepG2 cells (100 mm diameter dish) were lysed with 400 μl of a cell lysis buffer (10 mM Tris-HCl [pH 7.4], 140 mM NaCl, 5 mM EDTA, 1% NP40, 25 mM NaF, […], and 10 mM PMSF). The resulting lysate was immunoprecipitated with anti-Smad2/3 antibody, and the immunoprecipitates were probed with predetermined antibodies.\nFurther, HepG2 cells transfected with control siRNA or GREB1 #2 siRNA were cultured in the presence or absence of 10 ng/mL of TGFβ for 30 minutes. The cultured cells were fixed, and immunostained with anti-Smad2/3 antibody (see c of FIG. 8). Further, cell lysates of the cultured cells were immunoprecipitated with anti-Smad2/3 antibody. Next, the resulting cell lysates (Input) and immunoprecipitates (IP) were reacted with anti-Smad4 antibody or anti-Smad2/3 antibody (see d of FIG. 8). In addition, the cell lysates of the cultured cells were reacted with anti-GREB1 antibody, anti-phosphorylated Smad2/3 (pSmad2/3) antibody, or anti-Smad2/3 antibody (see e of FIG. 8).\nLysates of HepG2 cells transfected with control siRNA or GREB1 #2 siRNA were immunoprecipitated with anti-Smad2/3 antibody. Next, the resulting cell lysates (input) and immunoprecipitates (IP) were reacted with anti-p300 antibody, anti-GREB1 antibody, or anti-Smad2/3 antibody (see e of FIG. 7). […]"}, "HepG2 cells": {"tested_on": "HepG2 cells", "assay": "Cell viability by propidium iodide and Hoechst33342 staining", "conditions": "medium without Z-VAD, 0.1% FBS, 2 days; PI and Hoechst33342", "protocol": "Further, HepG2 cells were transfected with control siRNA or siRNAs (GREB1 #1 siRNA and GREB1 #2 siRNA), cultured in media (caspase inhibitor Z-VAD was contained in one condition, and not contained in the other condition) containing 0.1% FBS for 2 days, stained with propidium iodide (PI, […]) and Hoechst33342 (nucleus), and the cell viability was evaluated.\nFurther, HepG2 cells transfected with control siRNA, GREB1 siRNA (GREB1 #2 siRNA), p15 siRNA, or siRNA of GREB1 (GREB1 #2 siRNA) and siRNA of p15 in combination were cultured in media (caspase inhibitor Z-VAD was contained in one condition, and not contained in the other condition) containing 0.1% FBS for 2 days, stained with propidium iodide (PI) and Hoechst33342, and the cell viability was calculated."}, "GREB1": {"tested_on": "GREB1", "assay": "GREB1 expression in HepG2 cells after GREB1 siRNA or GREB1 ASO (cell lysates probed with anti-GREB1 antibody)", "conditions": "siRNA 10 nm, lysate probing", "protocol": "Phosphorothioated I5-mer antisense oligonucleotides (ASOs) containing AmNA monomers were prepared (synthesized by GeneDesign (Ibaraki, Japan)). In the present specification, “hGREB1-6424-AmNA (15)” is sometimes simply referred to as “ASO-6424” or “GREB1 ASO-6424”. Similar abbreviations are used for describing other ASOs. Using RNAiMAX (Invitrogen, Carlsbad, Calif., USA), HepG2 or COLO679 cells were transfected with 10 nM of ASOs. In experiments, the cells were used from 36 to 48 hours after transfection.\nUsing RNAiMAX (Life Technologies/Thermo Fisher Scientific), HepG2 cells, Huh6 cells, Hep3B cells, JHH7 cells, and SKMEL28 cells were each transfected with each siRNA (10 nm). In experiments, the cells were used from 48 to 120 hours after transfection.\nAs reported previously, knockdown of β-catenin decreased HepG2 cell proliferation (see a of FIG. 3). […] Thus, to elucidate the role of GREB1 in HepG2 cells, knockdown of GREB1 was carried out using two different siRNAs.\nNext, HepG2 cells were transfected with control ASO or each of the above-described GREB1 ASOs, cultured in a medium containing 10% FBS for 2 days, and the cell lysates were probed with anti-GREB1 antibody and anti-HSP90 antibody."}}}
{"substance": "GREB1 #2 siRNA: siRNA against human GREB1; sense 5′-CCUCCUACAAAGCAAUAUUTT-3′ (SEQ ID NO: 6), antisense SEQ ID NO: 7 (antisense AAUAUUGCUUUGUAGGAGGTT; chemistry not given here)", "values": [{"measurement": "TGFβ-dependent nuclear transport of Smad2/3, complex formation of Smad2/3 and Smad4, phosphorylation of Smad2/3", "setting": "Smad2/3; 10 ng/mL TGFβ for 30 minutes", "value": "no effect"}, {"measurement": "binding of Smad2/3 to p300", "setting": "Smad2/3; anti-Smad2/3 immunoprecipitation", "value": "increased"}, {"measurement": "cell death of HepG2 cells", "setting": "HepG2 cells", "value": "elevated cell death"}, {"measurement": "knockdown of GREB1 (anti-GREB1 antibody)", "setting": "GREB1", "value": "knocked down"}]}
